Assay results from US10638756B2, “Molecules having pesticidal utility, and intermediates, compositions, and processes, related thereto” (Dow AgroSciences LLC, priority 2017, dated 2020).

Key:
[1] = tested on: Cabbage Looper (Trichoplusia ni); assay: Bioassay on Cabbage Looper (CL), 128-well diet tray assay; assay type: in vivo; conditions: 168 h, 50 μg/cm^2 on artificial diet, second instar larvae, five to seven days, read-out: CL % Control (or Mortality) rating
Experimental: (§1) Certain molecules disclosed in this document were tested against BAW and CL using procedures described in the following examples. In the reporting of the results, the “BAW & CL Rating Table” was used (See Table Section).
Bioassays on CL were conducted using a 128-well diet tray assay. One to five second instar CL larvae were placed in each well (3 mL) of the diet tray that had been previously filled with 1 mL of artificial diet to which 50 μg/cm^2 of the test molecule (dissolved in 50 μL of 90:10 acetone-water mixture) had been applied (to each of eight wells) and then allowed to dry. Trays were covered with a clear self-adhesive cover, vented to allow gas exchange, and held at 25° C., 14:10 light-dark for five to seven days. Percent mortality was recorded for the larvae in each well; activity in the eight wells was then averaged. The results are indicated in the table entitled “Table ABC: Biological Results” (See Table Section).

[2] = tested on: Beet Armyworm (Spodoptera exigua); assay: Bioassay on Beet Armyworm (BAW), 128-well diet tray assay; assay type: in vivo; conditions: for mortality at 50 µg/cm2: Spodoptera exigua, 168 h, 50 μg/cm^2 on artificial diet, second instar larvae, five to seven days, read-out: BAW % Control (or Mortality) rating
Experimental: as §1
Bioassays on BAW were conducted using a 128-well diet tray assay. […] Trays were covered with a clear self-adhesive cover, vented to allow gas exchange, and held at 25° C., 14:10 light-dark for five to seven days. Percent mortality was recorded for the larvae in each well; activity in the eight wells was then averaged. The results are indicated in the table entitled “Table ABC: Biological Results” (See Table Section).

SMILES: O=C(NNc1cccc(Br)n1)c1ccc(/C(F)=C/C(c2cc(Cl)c(Cl)c(Cl)c2)C(F)(F)F)cc1C(F)(F)F (centres unmarked) [F165, (Z)—N′-(6-Bromopyridin-2-yl)-4-(1,4,4,4-tetrafluoro-3-(3,4,5-trichlorophenyl)but-1-en-1-yl)-2-(trifluoromethyl)benzohydrazide]
- mortality at 50 µg/cm2 [1]: 50 to 100%
- mortality at 50 µg/cm2 [2]: 50 to 100%

SMILES: O=C(NNC1CCS(=O)(=O)C1)c1ccc(/C(F)=C/C(c2cc(Cl)c(Cl)c(Cl)c2)C(F)(F)F)cc1C(F)(F)F (centres unmarked) [F135, (Z)—N′-(1,1-Dioxidotetrahydrothiophen-3-yl)-4-(1,4,4,4-tetrafluoro-3-(3,4,5-trichlorophenyl)but-1-en-1-yl)-2-(trifluoromethyl)benzohydrazide]
- mortality at 50 µg/cm2 [1]: 50 to 100%
- mortality at 50 µg/cm2 [2]: 50 to 100%

SMILES: O=C(NNc1ncccn1)c1ccc(/C(F)=C/C(c2cc(Cl)c(Cl)c(C(F)F)c2)C(F)(F)F)cc1C(F)(F)F (centres unmarked) [F186, (Z)-4-(3-(3,4-Dichloro-5-(difluoromethyl)phenyl)-1,4,4,4-tetrafluorobut-1-en-1-yl)-N′-(pyrimidin-2-yl)-2-(trifluoromethyl)benzohydrazide]
- mortality at 50 µg/cm2 [1]: 50 to 100%
- mortality at 50 µg/cm2 [2]: 50 to 100%

SMILES: O=C(NNc1cccnn1)c1ccc(/C(F)=C/C(c2cc(Cl)c(Cl)c(Cl)c2)C(F)(F)F)cc1C(F)(F)F (centres unmarked) [F86]
- mortality at 50 µg/cm2 [1]: 50 to 100%
- mortality at 50 µg/cm2 [2]: 50 to 100%

SMILES: O=C(NNc1ncccn1)c1ccc(/C(F)=C/C(c2cc(Br)c(F)c(Br)c2)C(F)(F)F)cc1C(F)(F)F (centres unmarked) [F163, (Z)-4-(3-(3,5-Dibromo-4-fluorophenyl)-1,4,4,4-tetrafluorobut-1-en-1-yl)-N′-(pyrimidin-2-yl)-2-(trifluoromethyl)benzohydrazide]
- mortality at 50 µg/cm2 [1]: 50 to 100%
- mortality at 50 µg/cm2 [2]: 50 to 100%

SMILES: O=C(NNc1ncc(C(F)(F)F)cn1)c1ccc(/C(F)=C/C(c2cc(Cl)c(Cl)c(Cl)c2)C(F)(F)F)cc1C(F)(F)F (centres unmarked) [F101, (Z)-4-(1,4,4,4-Tetrafluoro-3-(3,4,5-trichlorophenyl)but-1-en-1-yl)-2-(trifluoromethyl)-N′-(5-(trifluoromethyl)pyrimidin-2-yl)benzohydrazide]
- mortality at 50 µg/cm2 [1]: 50 to 100%
- mortality at 50 µg/cm2 [2]: 50 to 100%

SMILES: CN(NC(=O)c1ccc(/C(F)=C/C(c2cc(Cl)c(Cl)c(Cl)c2)C(F)(F)F)cc1C(F)(F)F)c1ccccn1 (centres unmarked) [F59, (Z)—N′-Methyl-N′-(pyridin-2-yl)-4-(1,4,4,4-tetrafluoro-3-(3,4,5-trichloro-phenyl)but-1-en-1-yl)-2-(trifluoromethyl)benzohydrazide]
- mortality at 50 µg/cm2 [1]: 50 to 100%
- mortality at 50 µg/cm2 [2]: 50 to 100%

SMILES: CC(C)(C)CNNC(=O)c1ccc(/C(F)=C/C(c2cc(Cl)c(Cl)c(Cl)c2)C(F)(F)F)cc1C(F)(F)F (centres unmarked) [F140, (Z)—N′-Neopentyl-4-(1,4,4,4-tetrafluoro-3-(3,4,5-trichlorophenyl)but-1-en-1-yl)-2-(trifluoromethyl)benzohydrazide]
- mortality at 50 µg/cm2 [1]: 50 to 100%
- mortality at 50 µg/cm2 [2]: 50 to 100%

SMILES: CC(C)N(Nc1ncccn1)C(=O)c1ccc(/C(F)=C/C(c2cc(Cl)c(Cl)c(Cl)c2)C(F)(F)F)cc1C(F)(F)F (centres unmarked) [F170, (Z)—N-Isopropyl-N′-(pyrimidin-2-yl)-4-(1,4,4,4-tetrafluoro-3-(3,4,5-trichlorophenyl)but-1-en-1-yl)-2-(trifluoromethyl)benzohydrazide]
- mortality at 50 µg/cm2 [1]: 50 to 100%
- mortality at 50 µg/cm2 [2]: 50 to 100%

SMILES: CSc1nccc(NNC(=O)c2ccc(/C(F)=C/C(c3cc(Cl)c(Cl)c(Cl)c3)C(F)(F)F)cc2C(F)(F)F)n1 (centres unmarked) [F5, (Z)—N′-(2-(Methylthio)pyrimidin-4-yl)-4-(1,4,4,4-tetrafluoro-3-(3,4,5-trichlorophenyl)but-1-en-1-yl)-2-(trifluoromethyl)benzohydrazide]
- mortality at 50 µg/cm2 [1]: 50 to 100%
- mortality at 50 µg/cm2 [2]: 50 to 100%

SMILES: O=C(NNc1ncccn1)c1ccc(/C(F)=C/C(c2cc(Cl)c(Cl)c(Cl)c2)C(F)(F)F)cc1 (centres unmarked) [1A, (Z)—N′-(Pyrimidin-2-yl)-4-(1,4,4,4-tetrafluoro-3-(3,4,5-trichlorophenyl)but-1-en-1-yl)benzohydrazide]
- BAW (Table CD-1) ([2]; 0.05 μg/cm^2): 0
- BAW (Table CD-1) ([2]; 5.0 μg/cm^2): 25
- BAW (Table CD-1) ([2]; 50 μg/cm^2): 100
